Experimental data: PubChem BioAssay AID2060509 (Molecular Pharmacology Branch, DTP, NCI, 2025)

Tested on: 485176-168-R4-J1-PDC spheroids with HUVEC/MSC, viability
Experiment: Anticancer human tumor 485176-168-R4-J1-PDC patient-derived pancreatic adenocarcinoma cell line growth inhibition [GQUAD]
Details: for IC50: curve of first compound; for viability, T/C: stronger effect = lower value
Procedure, shortened: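 Multi-cell-type spheroids of tumor cells with HUVEC and mesenchymal stem cells, treated with drug combinations. Concentrations descend in half-log steps from near clinical Cmax, or from 10 microM where Cmax is unknown; viability read-out.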

[1] = second compound 0.0316 µM, first compound 0.000999 µM
[2] = second compound 0.0316 µM, first compound 0.00316 µM
[3] = second compound 0.0316 µM, first compound 0.00999 µM
[4] = second compound 0.0316 µM, first compound 0.0316 µM
[5] = second compound 0.0316 µM, first compound 0.0999 µM
[6] = second compound 0.0316 µM, first compound 0.316 µM
[7] = second compound 0.1 µM, first compound 0.000999 µM
[8] = second compound 0.1 µM, first compound 0.00316 µM
[9] = second compound 0.1 µM, first compound 0.00999 µM
[10] = second compound 0.1 µM, first compound 0.0316 µM
[11] = second compound 0.1 µM, first compound 0.0999 µM
[12] = second compound 0.1 µM, first compound 0.316 µM
[13] = second compound 0.316 µM, first compound 0.000999 µM
[14] = second compound 0.316 µM, first compound 0.00316 µM
[15] = second compound 0.316 µM, first compound 0.00999 µM
[16] = second compound 0.316 µM, first compound 0.0316 µM
[17] = second compound 0.316 µM, first compound 0.0999 µM
[18] = second compound 0.316 µM, first compound 0.316 µM
[19] = second compound 1 µM, first compound 0.000999 µM
[20] = second compound 1 µM, first compound 0.00316 µM
[21] = second compound 1 µM, first compound 0.00999 µM
[22] = second compound 1 µM, first compound 0.0316 µM
[23] = second compound 1 µM, first compound 0.0999 µM
[24] = second compound 1 µM, first compound 0.316 µM
[25] = second compound 3.16 µM, first compound 0.000999 µM
[26] = second compound 3.16 µM, first compound 0.00316 µM
[27] = second compound 3.16 µM, first compound 0.00999 µM
[28] = second compound 3.16 µM, first compound 0.0316 µM
[29] = second compound 3.16 µM, first compound 0.0999 µM
[30] = second compound 3.16 µM, first compound 0.316 µM
[31] = second compound 10 µM, first compound 0.000999 µM
[32] = second compound 10 µM, first compound 0.00316 µM
[33] = second compound 10 µM, first compound 0.00999 µM
[34] = second compound 10 µM, first compound 0.0316 µM
[35] = second compound 10 µM, first compound 0.0999 µM
[36] = second compound 10 µM, first compound 0.316 µM
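Note: spheroids exposed to compounds for seven days before readout.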
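Throughout, for viability, T/C: percent viability relative to DMSO vehicle control wells as 100%.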

With `Cn1ncnc1[C@H]1c2n[nH]c(=O)c3cc(F)cc(c23)N[C@@H]1c1ccc(F)cc1` + CN(C)c1ccc(Nc2c3ccc(NC(=O)CCN4CCCC4)cc3nc3cc(NC(=O)CCN4CCCC4)ccc23)cc1 the IC50 (second compound 0.0316 µM) was greater than 316 nM, the IC50 (second compound 0.1 µM) was greater than 316 nM and the IC50 (second compound 0.316 µM) was greater than 316 nM. For the same compound, the IC50 (second compound 1 µM) was greater than 316 nM, the IC50 (second compound 3.16 µM) was greater than 316 nM and the IC50 (second compound 10 µM) was greater than 316 nM. For the same compound, the viability, T/C [1] was 92.1%, the viability, T/C [2] was 91.2% and the viability, T/C [3] was 101%. It also gave a viability, T/C [4] of 98%, a viability, T/C [5] of 98.9% and a viability, T/C [6] of 92%. For the same compound, the viability, T/C [7] was 102%, the viability, T/C [8] was 124% and the viability, T/C [9] was 107%. It also gave a viability, T/C [10] of 93.3%, a viability, T/C [11] of 110% and a viability, T/C [12] of 90.8%. For the same compound, the viability, T/C [13] was 101%, the viability, T/C [14] was 97.5% and the viability, T/C [15] was 95.3%. For the same compound, the viability, T/C [16] was 104%, the viability, T/C [17] was 106% and the viability, T/C [18] was 96.5%. It also gave a viability, T/C [19] of 108%, a viability, T/C [20] of 91.7% and a viability, T/C [21] of 114%. For the same compound, the viability, T/C [22] was 104%, the viability, T/C [23] was 113% and the viability, T/C [24] was 93.2%. The viability, T/C [25] was 107%, the viability, T/C [26] was 80.9% and the viability, T/C [27] was 98.6%. For the same compound, the viability, T/C [28] was 95.7%, the viability, T/C [29] was 89.3% and the viability, T/C [30] was 86.8%. For the same compound, the viability, T/C [31] was 90.1%, the viability, T/C [32] was 81.4% and the viability, T/C [33] was 79.6%. It also gave a viability, T/C [34] of 97.7%, a viability, T/C [35] of 99.5% and a viability, T/C [36] of 78.8%.

With `C#Cc1c(F)ccc2cc(O)cc(-c3ncc4c(N5CC6CCC(C5)N6)nc(OCC56CCCN5CC(F)C6)nc4c3F)c12` (stereo unspecified) + CN(C)c1ccc(Nc2c3ccc(NC(=O)CCN4CCCC4)cc3nc3cc(NC(=O)CCN4CCCC4)ccc23)cc1 the IC50 (second compound 0.0316 µM) was greater than 10000 nM, the IC50 (second compound 0.1 µM) was greater than 10000 nM and the IC50 (second compound 0.316 µM) was greater than 10000 nM. It also gave an IC50 (second compound 1 µM) greater than 10000 nM, an IC50 (second compound 3.16 µM) greater than 10000 nM and an IC50 (second compound 10 µM) greater than 10000 nM. It also gave a viability, T/C [4] of 119%, a viability, T/C (second compound 0.0316 µM, first compound 0.1 µM) of 106% and a viability, T/C [6] of 103%. The viability, T/C (second compound 0.0316 µM, first compound 1 µM) was 106%, the viability, T/C (second compound 0.0316 µM, first compound 3.16 µM) was 95.6% and the viability, T/C (second compound 0.0316 µM, first compound 10 µM) was 98.2%. The viability, T/C [10] was 112%, the viability, T/C (second compound 0.1 µM, first compound 0.1 µM) was 99.5% and the viability, T/C [12] was 91.9%. The viability, T/C (second compound 0.1 µM, first compound 1 µM) was 97.9%, the viability, T/C (second compound 0.1 µM, first compound 3.16 µM) was 120% and the viability, T/C (second compound 0.1 µM, first compound 10 µM) was 116%. The viability, T/C [16] was 97.4%, the viability, T/C (second compound 0.316 µM, first compound 0.1 µM) was 81.8% and the viability, T/C [18] was 105%. The viability, T/C (second compound 0.316 µM, first compound 1 µM) was 102%, the viability, T/C (second compound 0.316 µM, first compound 3.16 µM) was 95.5% and the viability, T/C (second compound 0.316 µM, first compound 10 µM) was 85.5%. For the same compound, the viability, T/C [22] was 91.6%, the viability, T/C (second compound 1 µM, first compound 0.1 µM) was 90.8% and the viability, T/C [24] was 99.3%. For the same compound, the viability, T/C (second compound 1 µM, first compound 1 µM) was 111%, the viability, T/C (second compound 1 µM, first compound 3.16 µM) was 94.6% and the viability, T/C (second compound 1 µM, first compound 10 µM) was 94.3%. For the same compound, the viability, T/C [28] was 113%, the viability, T/C (second compound 3.16 µM, first compound 0.1 µM) was 96.2% and the viability, T/C [30] was 103%. It also gave a viability, T/C (second compound 3.16 µM, first compound 1 µM) of 94.4%, a viability, T/C (second compound 3.16 µM, first compound 3.16 µM) of 99.4% and a viability, T/C (second compound 3.16 µM, first compound 10 µM) of 78.2%. For the same compound, the viability, T/C [34] was 89.8%, the viability, T/C (second compound 10 µM, first compound 0.1 µM) was 104% and the viability, T/C [36] was 82.5%. For the same compound, the viability, T/C (second compound 10 µM, first compound 1 µM) was 91.9%, the viability, T/C (second compound 10 µM, first compound 3.16 µM) was 70.8% and the viability, T/C (second compound 10 µM, first compound 10 µM) was 54.3%.

`Cn1ncnc1[C@H]1c2n[nH]c(=O)c3cc(F)cc(c23)N[C@@H]1c1ccc(F)cc1` + Cc1cnc(CNC(=O)c2c(=O)c3ccc(N4CCCN(C)CC4)nc3n3c2sc2ccccc23)cn1 was tested, and the IC50 (second compound 0.0316 µM) was greater than 316 nM, the IC50 (second compound 0.1 µM) was greater than 316 nM and the IC50 (second compound 0.316 µM) was greater than 316 nM. The IC50 (second compound 1 µM) was greater than 316 nM, the IC50 (second compound 3.16 µM) was 7.33 nM and the IC50 (second compound 10 µM) was less than 0.999 nM. For the same compound, the viability, T/C [1] was 90.2%, the viability, T/C [2] was 79% and the viability, T/C [3] was 91.5%. It also gave a viability, T/C [4] of 90.2%, a viability, T/C [5] of 91.4% and a viability, T/C [6] of 80.8%. The viability, T/C [7] was 74.4%, the viability, T/C [8] was 91.7% and the viability, T/C [9] was 75.8%. For the same compound, the viability, T/C [10] was 77.3%, the viability, T/C [11] was 78.9% and the viability, T/C [12] was 69.9%. For the same compound, the viability, T/C [13] was 63.6%, the viability, T/C [14] was 70.5% and the viability, T/C [15] was 64.8%. It also gave a viability, T/C [16] of 62.7%, a viability, T/C [17] of 56.2% and a viability, T/C [18] of 68.7%. It also gave a viability, T/C [19] of 49.3%, a viability, T/C [20] of 61.2% and a viability, T/C [21] of 74%. It also gave a viability, T/C [22] of 51.8%, a viability, T/C [23] of 52.8% and a viability, T/C [24] of 48.5%. For the same compound, the viability, T/C [25] was 45.4%, the viability, T/C [26] was 63.9% and the viability, T/C [27] was 48.3%. For the same compound, the viability, T/C [28] was 45.3%, the viability, T/C [29] was 45.4% and the viability, T/C [30] was 40%. The viability, T/C [31] was 42.8%, the viability, T/C [32] was 48.4% and the viability, T/C [33] was 39.2%. The viability, T/C [34] was 34.8%, the viability, T/C [35] was 38.1% and the viability, T/C [36] was 33.5%.
